Test results as given in patent US9149038B2, “4-amino-6-(heterocyclic)picolinates and 6-amino-2-(heterocyclic)pyrimidine-4-carboxylates and their use as herbicides” (Dow AgroSciences LLC, priority 2013, dated 2015).
Read-outs that look alike come from different tables or passages of the source.

Key:
[1] = test system: Key Broadleaf and Grass Weed as well as Crop Species; experiment: Post-Emergent Test I: postemergent herbicidal activity, visual phytotoxicity rating 10 days after treatment (Table 5); assay type: in vivo; conditions: 4 kg ai/ha; for pest or weed control at 4000 g/ha: post-emergence, 240 h, 10 days after application
Description: Herbicidal evaluations were made visually on a scale of 0 to 100 where 0 represents no activity and 100 represents complete plant death. Post-Emergent Test I: Seeds of test species were obtained from commercial suppliers and planted into a 5″-round pot containing soil-less media mix (Metro-Mix 360®, Sun Gro Horticulture). Postemergence treatments were planted 8-12 days (d) prior to application and cultured in a greenhouse equipped with supplemental light sources to provide a 16 h photoperiod at 24-29° C. All pots were surface irrigated. Approximately 10 milligrams (mg) of each compound were dissolved in 1.3 mL acetone-DMSO (97:3, volume per volume (v/v)) and diluted with 4.1 mL water-isopropanol-crop oil concentrate (78:20:2, v/v/v) containing 0.02% Triton X-155. Treatments were serial diluted with the above formulation solvent to provide 1.85, 0.926, 0.462 and 0.231 milligrams per milliliter (mg/mL) of test compound delivered in 2.7 mL/pot (roughly equivalent to 4.0, 2.0, 1.0, and 0.5 kg/ha, respectively). Formulated compounds were applied using a DeVilbiss® compressed air sprayer at 2-4 pounds per square inch (psi). Following treatment, pots were returned to the greenhouse for the duration of the experiment. All pots were sub-irrigated as needed to provide optimum growing conditions. All pots were fertilized one time per week by subirrigating with Peters Peat-Lite Special® fertilizer (20-10-20). Phytotoxicity ratings were obtained 10 days after treatment postemergence applications. All evaluations were made visually on a scale of 0 to 100 where 0 represents no activity and 100 represents complete plant death and are presented as indicated in Table 4.

[2] = test system: Wheat and Barley and weed species; experiment: Post-Emergent Test III: postemergent herbicidal activity in wheat and barley, visual rating after 21 d and probit GR20/GR50/GR80/GR90 (Tables 9-13); assay type: in vivo; conditions: for GR50 ALOMY / GR50 APESV / GR50 KCHSC / GR50 LOLSS / GR50 SETVI: growth reduction of 50%; for GR50 ALOMY / GR80 ALOMY / GR90 ALOMY / GR50 APESV / GR80 APESV / GR90 APESV / GR20 HORVS / GR50 KCHSC / GR80 KCHSC / GR90 KCHSC / GR50 LOLSS / GR80 LOLSS / GR90 LOLSS / GR50 SETVI / GR80 SETVI / GR90 SETVI / GR20 TRZAS: probit analysis; for GR80 ALOMY / GR80 APESV / GR80 KCHSC / GR80 LOLSS / GR80 SETVI: growth reduction of 80%; for GR90 ALOMY / GR90 APESV / GR90 KCHSC / GR90 LOLSS / GR90 SETVI: growth reduction of 90%; for GR20 HORVS / GR20 TRZAS: growth reduction of 20%; for pest or weed control at 35 g/ha / pest or weed control at 70 g/ha / pest or weed control at 140 g/ha / pest or weed control at 17.5 g/ha: post-emergence, 504 h; for Visual Growth Reduction (%) 21 Days After Application KCHSC / GR50 KCHSC / GR80 KCHSC / GR90 KCHSC: KCHSC kochia (Kochia scoparia)
Procedure, shortened: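 Greenhouse plants (~18/17 °C, 14 h photoperiod) at second–third true leaf stage sprayed at 187 L/ha with a high rate and ½× to 1/16× serial dilutions. Visual injury 0–100% versus solvent-blank controls scored at 21 d; GR20, GR50, GR80 and GR90 derived by probit analysis across rates.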

[3] = ALOMY black-grass (Alopecurus myosuroides)
[4] = APESV bentgrass (Apera spica-venti)
[5] = Hordeum vulgare, HORVS barley, spring (crop), 35 g ai/ha, read-out: Visual Growth Reduction (%) 21 Days After Application HORVS
[6] = Hordeum vulgare, HORVS barley, spring (crop), 70 g ai/ha, read-out: Visual Growth Reduction (%) 21 Days After Application HORVS
[7] = SETVI green foxtail (Setaria viridis)
[8] = Triticum aestivum, TRZAS wheat, spring (crop), 35 g ai/ha, read-out: Visual Growth Reduction (%) 21 Days After Application TRZAS
[9] = Triticum aestivum, TRZAS wheat, spring (crop), 70 g ai/ha, read-out: Visual Growth Reduction (%) 21 Days After Application TRZAS
[10] = ALOMY black-grass (Alopecurus myosuroides), 35 g ai/ha, read-out: Visual Growth Reduction (%) 21 Days After Application ALOMY
[11] = ALOMY black-grass (Alopecurus myosuroides), 70 g ai/ha, read-out: Visual Growth Reduction (%) 21 Days After Application ALOMY
[12] = APESV bentgrass (Apera spica-venti), 35 g ai/ha, read-out: Visual Growth Reduction (%) 21 Days After Application APESV
[13] = APESV bentgrass (Apera spica-venti), 70 g ai/ha, read-out: Visual Growth Reduction (%) 21 Days After Application APESV
[14] = LOLSS ryegrass, 35 g ai/ha, read-out: Visual Growth Reduction (%) 21 Days After Application LOLSS
[15] = LOLSS ryegrass, 70 g ai/ha, read-out: Visual Growth Reduction (%) 21 Days After Application LOLSS
[16] = SETVI green foxtail (Setaria viridis), 35 g ai/ha, read-out: Visual Growth Reduction (%) 21 Days After Application SETVI
[17] = SETVI green foxtail (Setaria viridis), 70 g ai/ha, read-out: Visual Growth Reduction (%) 21 Days After Application SETVI

COC(=O)c1nc(-c2cccc3c2OCO3)c(F)c(N)c1Cl [Compound 71, Methyl 4-amino-6-(benzo[d][1,3]dioxol-4-yl)-3-chloro-5-fluoropicolinate]
Visual Growth Reduction (%) 10 Days After Application ECHCG ([1]; barnyardgrass (Echinochloa crus-galli)): G (0-29)
pest or weed control at 4000 g/ha ([1]; giant foxtail (Setaria faberi), read-out: Visual Growth Reduction (%) 10 Days After Application SETFA): 0 to 29%
pest or weed control at 4000 g/ha ([1]; ivyleaf morningglory (Ipomoea hederecea), read-out: Visual Growth Reduction (%) 10 Days After Application IPOHE): 75 to 84%
pest or weed control at 4000 g/ha ([1]; sunflower (Helianthus annuus), read-out: Visual Growth Reduction (%) 10 Days After Application HELAN): 95 to 100%
pest or weed control at 4000 g/ha ([1]; wild oats (Avena fatua), read-out: Visual Growth Reduction (%) 10 Days After Application AVEFA): 0 to 29%

Nc1cc(-c2cc3c(cc2F)OC(F)(F)O3)nc(C(=O)O)c1Cl [Compound 42]
GR50 ALOMY [2, 3]: 11 g ai/ha
GR80 ALOMY [2, 3]: 25 g ai/ha
GR90 ALOMY [2, 3]: 40 g ai/ha
GR50 APESV [2, 4]: 22 g ai/ha
GR80 APESV [2, 4]: 81 g ai/ha
GR90 APESV [2, 4]: >140 g ai/ha
GR20 HORVS ([2]; HORVS barley, spring (crop)): 0.50 g ai/ha
pest or weed control at 35 g/ha [2, 5]: 75 to 84%
pest or weed control at 70 g/ha [2, 6]: 85 to 94%
pest or weed control at 140 g/ha ([2]; Hordeum vulgare, HORVS barley, spring (crop), 140 g ai/ha, read-out: Visual Growth Reduction (%) 21 Days After Application HORVS): 85 to 94%
Visual Growth Reduction (%) 21 Days After Application KCHSC ([2]; 35 g ai/ha): E (45-59)
Visual Growth Reduction (%) 21 Days After Application KCHSC ([2]; 70 g ai/ha): E (45-59)
Visual Growth Reduction (%) 21 Days After Application KCHSC ([2]; 140 g ai/ha): D (60-74)
GR50 KCHSC [2]: 54 g ai/ha
GR80 KCHSC [2]: >140 g ai/ha
GR90 KCHSC [2]: >140 g ai/ha
GR50 LOLSS ([2]; LOLSS ryegrass): 44 g ai/ha
GR80 LOLSS ([2]; LOLSS ryegrass): >140 g ai/ha
GR90 LOLSS ([2]; LOLSS ryegrass): >140 g ai/ha
GR50 SETVI [2, 7]: 10 g ai/ha
GR80 SETVI [2, 7]: 46 g ai/ha
GR90 SETVI [2, 7]: >140 g ai/ha
GR20 TRZAS ([2]; TRZAS wheat, spring (crop)): 0.20 g ai/ha
pest or weed control at 35 g/ha [2, 8]: 75 to 84%
pest or weed control at 70 g/ha [2, 9]: 75 to 84%
pest or weed control at 140 g/ha ([2]; Triticum aestivum, TRZAS wheat, spring (crop), 140 g ai/ha, read-out: Visual Growth Reduction (%) 21 Days After Application TRZAS): 85 to 94%
pest or weed control at 35 g/ha [2, 10]: 85 to 94%
pest or weed control at 70 g/ha [2, 11]: 95 to 100%
pest or weed control at 140 g/ha ([2]; ALOMY black-grass (Alopecurus myosuroides), 140 g ai/ha, read-out: Visual Growth Reduction (%) 21 Days After Application ALOMY): 95 to 100%
pest or weed control at 35 g/ha [2, 12]: 60 to 74%
pest or weed control at 70 g/ha [2, 13]: 75 to 84%
pest or weed control at 140 g/ha ([2]; APESV bentgrass (Apera spica-venti), 140 g ai/ha, read-out: Visual Growth Reduction (%) 21 Days After Application APESV): 85 to 94%
pest or weed control at 35 g/ha [2, 14]: 45 to 59%
pest or weed control at 70 g/ha [2, 15]: 60 to 74%
pest or weed control at 140 g/ha ([2]; LOLSS ryegrass, 140 g ai/ha, read-out: Visual Growth Reduction (%) 21 Days After Application LOLSS): 60 to 74%
pest or weed control at 35 g/ha [2, 16]: 75 to 84%
pest or weed control at 70 g/ha [2, 17]: 85 to 94%
pest or weed control at 140 g/ha ([2]; SETVI green foxtail (Setaria viridis), 140 g ai/ha, read-out: Visual Growth Reduction (%) 21 Days After Application SETVI): 95 to 100%

COC(=O)c1nc(-c2ccc3c(c2)OC(C)(C)O3)c(F)c(N)c1Cl [Compound 8]
GR50 ALOMY [2, 3]: >70 g ai/ha
GR80 ALOMY [2, 3]: >70 g ai/ha
GR90 ALOMY [2, 3]: >70 g ai/ha
GR50 APESV [2, 4]: 22 g ai/ha
GR80 APESV [2, 4]: 36 g ai/ha
GR90 APESV [2, 4]: 46 g ai/ha
GR20 HORVS ([2]; HORVS barley, spring (crop)): 7 g ai/ha
pest or weed control at 17.5 g/ha ([2]; Hordeum vulgare, HORVS barley, spring (crop), 17.5 g ai/ha, read-out: Visual Growth Reduction (%) 21 Days After Application HORVS): 30 to 44%
pest or weed control at 35 g/ha [2, 5]: 60 to 74%
pest or weed control at 70 g/ha [2, 6]: 60 to 74%
Visual Growth Reduction (%) 21 Days After Application KCHSC ([2]; 17.5 g ai/ha): E (45-59)
Visual Growth Reduction (%) 21 Days After Application KCHSC ([2]; 35 g ai/ha): D (60-74)
Visual Growth Reduction (%) 21 Days After Application KCHSC ([2]; 70 g ai/ha): D (60-74)
GR50 KCHSC [2]: 21 g ai/ha
GR80 KCHSC [2]: >70 g ai/ha
GR90 KCHSC [2]: >70 g ai/ha
GR50 LOLSS ([2]; LOLSS ryegrass): >70 g ai/ha
GR80 LOLSS ([2]; LOLSS ryegrass): >70 g ai/ha
GR90 LOLSS ([2]; LOLSS ryegrass): >70 g ai/ha
GR50 SETVI [2, 7]: 11 g ai/ha
GR80 SETVI [2, 7]: 72 g ai/ha
GR90 SETVI [2, 7]: >70 g ai/ha
GR20 TRZAS ([2]; TRZAS wheat, spring (crop)): 6 g ai/ha
pest or weed control at 17.5 g/ha ([2]; Triticum aestivum, TRZAS wheat, spring (crop), 17.5 g ai/ha, read-out: Visual Growth Reduction (%) 21 Days After Application TRZAS): 30 to 44%
pest or weed control at 35 g/ha [2, 8]: 60 to 74%
pest or weed control at 70 g/ha [2, 9]: 60 to 74%
pest or weed control at 17.5 g/ha ([2]; ALOMY black-grass (Alopecurus myosuroides), 17.5 g ai/ha, read-out: Visual Growth Reduction (%) 21 Days After Application ALOMY): 0 to 29%
pest or weed control at 35 g/ha [2, 10]: 30 to 44%
pest or weed control at 70 g/ha [2, 11]: 45 to 59%
pest or weed control at 17.5 g/ha ([2]; APESV bentgrass (Apera spica-venti), 17.5 g ai/ha, read-out: Visual Growth Reduction (%) 21 Days After Application APESV): 0 to 29%
pest or weed control at 35 g/ha [2, 12]: 85 to 94%
pest or weed control at 70 g/ha [2, 13]: 85 to 94%
pest or weed control at 17.5 g/ha ([2]; LOLSS ryegrass, 17.5 g ai/ha, read-out: Visual Growth Reduction (%) 21 Days After Application LOLSS): 0 to 29%
pest or weed control at 35 g/ha [2, 14]: 0 to 29%
pest or weed control at 70 g/ha [2, 15]: 30 to 44%
pest or weed control at 17.5 g/ha ([2]; SETVI green foxtail (Setaria viridis), 17.5 g ai/ha, read-out: Visual Growth Reduction (%) 21 Days After Application SETVI): 60 to 74%
pest or weed control at 35 g/ha [2, 16]: 75 to 84%
pest or weed control at 70 g/ha [2, 17]: 75 to 84%
